In ChEMBL document CHEMBL6153155, “Novel Cyclohexyl Amido Acid Antagonists of Lysophosphatidic Acid Type 1 Receptor for the Treatment of Pulmonary Fibrosis” (ACS Med Chem Lett, 2025):
Values after ≈ are worked out from the molar mass of the structure shown. Values belong to the compound of their own block, whether it stands above or below them.

Key:
[1] = Unbound AUClast in female C57BL/6J mouse plasma at 30 mg/kg, po measured after 24 hrs by UPLC-MS/MS analysis; assay type: ADME, organism-based; conditions: in vivo
[2] = Tlast in female C57BL/6J mouse plasma at 30 mg/kg, po measured after 24 hrs by UPLC-MS/MS analysis; assay type: ADME, organism-based; conditions: in vivo
[3] = Total AUClast in female C57BL/6J mouse plasma at 30 mg/kg, po measured after 24 hrs by UPLC-MS/MS analysis; assay type: ADME, organism-based; conditions: in vivo
Bile salt export pump = Bile salt export pump (Homo sapiens, UniProt O95342); experiment: Inhibition of BSEP in cryopreserved sandwich-cultured human hepatocytes by measuring reduction in TCA biliary clearance using taurocholic acid as substrate; assay type: cell-based, Hepatocyte
[4] = Total Cmax in female C57BL/6J mouse plasma at 30 mg/kg, po measured after 24 hrs by UPLC-MS/MS analysis; assay type: ADME, organism-based
[5] = Metabolic stability in female C57BL/6J mouse liver microsomes assessed as intrinsic clearance measured per mg of protein at 0.5 uM measured upto 45 mins in presence of NADPH regenerating system by HPLC-MS/MS analysis; assay type: ADME, Microsome; conditions: read-out: CLH
[6] = Total AUClast in female C57BL/6J mouse lung at 30 mg/kg, po measured after 24 hrs by UPLC-MS/MS analysis; assay type: ADME, organism-based; conditions: in vivo
[7] = Metabolic stability in human liver microsomes assessed as intrinsic clearance measured per mg of protein at 0.5 uM measured upto 45 mins in presence of NADPH regenerating system by HPLC-MS/MS analysis; assay type: ADME, Microsome; conditions: read-out: CLH
[8] = Unbound AUClast in female C57BL/6J mouse lung at 30 mg/kg, po measured after 24 hrs by UPLC-MS/MS analysis; assay type: ADME, organism-based; conditions: in vivo
[9] = Clearance in female C57BL/6J mouse at 2 mg/kg, iv measured after 24 hrs by UPLC-MS/MS analysis; assay type: ADME, organism-based; conditions: in vivo
BSEP = BSEP (Homo sapiens, UniProt O95342); experiment: Inhibition of BSEP in cryopreserved sandwich-cultured human hepatocytes by measuring reduction in TCA biliary clearance using taurocholic acid as substrate at 50 uM relative to control; assay type: cell-based, Hepatocyte; conditions: cryopreserved sandwich-cultured hepatocytes, probe taurocholic acid
[10] = biological target: Lysophosphatidic acid receptor 1 (Mus musculus, UniProt P61793); experiment: Antagonist activity at mouse LPA1 transfected in human HeLa cells incubated for 30 mins by FLIPR-based calcium mobilization assay; assay type: cell-based
[11] = Volume of distribution at steady state in female C57BL/6J mouse at 2 mg/kg, iv measured after 24 hrs by UPLC-MS/MS analysis; assay type: ADME, organism-based; conditions: in vivo, read-out: Vdss
Mus musculus [12] = experiment: Inhibition of LPA-stimulated histamine release in male CD1 mouse plasma assessed as effective dose administered as po dose pretreated for 30 mins followed by LPA addition measured after 2 mins by enzyme immunoassay; assay type: functional; conditions: 32 min
[13] = Oral bioavailability in female C57BL/6J mouse at 2 mg/kg, iv measured after 24 hrs by UPLC-MS/MS analysis; assay type: ADME, organism-based; conditions: in vivo
[14] = Total Cmax in female C57BL/6J mouse lung at 30 mg/kg, po measured after 24 hrs by UPLC-MS/MS analysis; assay type: ADME, organism-based
[15] = Half life in female C57BL/6J mouse at 2 mg/kg, iv measured after 24 hrs by UPLC-MS/MS analysis; assay type: ADME, organism-based; conditions: in vivo
[16] = Antiproliferative activity against LPA treated human HLF cells preincubated for 1 hr followed by LPA stimulation and measured after 24 hrs by BrdU assay; conditions: read-out: pIC50 (converted)
[17] = Unbound Cmax in female C57BL/6J mouse lung at 30 mg/kg, po measured after 24 hrs by UPLC-MS/MS analysis; assay type: ADME, organism-based; conditions: in vivo
[18] = Unbound Cmax in female C57BL/6J mouse plasma at 30 mg/kg, po measured after 24 hrs by UPLC-MS/MS analysis; assay type: ADME, organism-based; conditions: in vivo
[19] = Lipophilicity, logD of compound at pH 7.4 by chromatographic hydrophobicity index method; assay type: physicochemical; conditions: buffer
[20] = Tlast in female C57BL/6J mouse lung at 30 mg/kg, po measured after 24 hrs by UPLC-MS/MS analysis; assay type: ADME, organism-based; conditions: in vivo
[21] = Aqueous solubility of the compound at pH 7.4; assay type: physicochemical; conditions: buffer
[22] = biological target: Lysophosphatidic acid receptor 1 (Homo sapiens, UniProt Q92633); experiment: Antagonist activity at human LPA1 expressed in CHO cells incubated for 30 mins by FLIPR-based calcium mobilization assay
[23] = biological target: T1, Solute carrier organic anion transporter family member 1B1 (Homo sapiens, UniProt Q9Y6L6); experiment: Inhibition of human OATP1B1 in HEK293 cells; assay type: cell-based
T1 sequence (Q9Y6L6 whole entry): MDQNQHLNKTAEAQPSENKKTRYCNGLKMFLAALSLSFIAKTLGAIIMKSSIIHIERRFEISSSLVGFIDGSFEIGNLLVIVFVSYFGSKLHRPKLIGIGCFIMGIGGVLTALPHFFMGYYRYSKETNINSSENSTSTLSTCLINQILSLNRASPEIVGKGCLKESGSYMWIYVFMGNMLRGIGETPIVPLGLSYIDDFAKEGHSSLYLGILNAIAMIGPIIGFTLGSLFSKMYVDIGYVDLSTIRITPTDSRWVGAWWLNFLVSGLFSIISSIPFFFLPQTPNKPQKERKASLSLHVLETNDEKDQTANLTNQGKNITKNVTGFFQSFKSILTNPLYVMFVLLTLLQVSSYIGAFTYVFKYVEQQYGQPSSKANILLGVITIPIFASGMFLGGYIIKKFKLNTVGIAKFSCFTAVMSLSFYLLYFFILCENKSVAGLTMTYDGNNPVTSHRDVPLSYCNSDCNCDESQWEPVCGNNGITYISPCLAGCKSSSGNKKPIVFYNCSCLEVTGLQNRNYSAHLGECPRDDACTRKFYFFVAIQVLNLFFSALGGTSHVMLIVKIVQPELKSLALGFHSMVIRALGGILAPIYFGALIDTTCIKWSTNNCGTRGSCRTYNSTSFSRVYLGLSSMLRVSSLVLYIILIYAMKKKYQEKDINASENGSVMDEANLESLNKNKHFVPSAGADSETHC

[24] = biological target: ATP-binding cassette sub-family C member 2 (Homo sapiens, UniProt Q92887); experiment: Inhibition of MRP2 (unknown origin) in presence of ATP by membrane vesicular transport assay; assay type: cell membranes, Membrane vesicle
[25] = biological target: Phosphatidylcholine translocator ABCB4 (Homo sapiens, UniProt P21439); experiment: Inhibition of MDR3 in human hepatocytes in the presence of TCA incubated for 3 hrs by LC-MS/MS; assay type: cell-based, Hepatocyte
[26] = biological target: ATP-binding cassette sub-family C member 3 (Homo sapiens, UniProt O15438); experiment: Inhibition of MRP3 (unknown origin) in presence of ATP by membrane vesicular transport assay; assay type: cell membranes, Membrane vesicle
[27] = biological target: T2, Solute carrier organic anion transporter family member 1B3 (Homo sapiens, UniProt Q9NPD5); experiment: Inhibition of human OATP1B3 in HEK293 cells; assay type: cell-based
T2 sequence (Q9NPD5 whole entry): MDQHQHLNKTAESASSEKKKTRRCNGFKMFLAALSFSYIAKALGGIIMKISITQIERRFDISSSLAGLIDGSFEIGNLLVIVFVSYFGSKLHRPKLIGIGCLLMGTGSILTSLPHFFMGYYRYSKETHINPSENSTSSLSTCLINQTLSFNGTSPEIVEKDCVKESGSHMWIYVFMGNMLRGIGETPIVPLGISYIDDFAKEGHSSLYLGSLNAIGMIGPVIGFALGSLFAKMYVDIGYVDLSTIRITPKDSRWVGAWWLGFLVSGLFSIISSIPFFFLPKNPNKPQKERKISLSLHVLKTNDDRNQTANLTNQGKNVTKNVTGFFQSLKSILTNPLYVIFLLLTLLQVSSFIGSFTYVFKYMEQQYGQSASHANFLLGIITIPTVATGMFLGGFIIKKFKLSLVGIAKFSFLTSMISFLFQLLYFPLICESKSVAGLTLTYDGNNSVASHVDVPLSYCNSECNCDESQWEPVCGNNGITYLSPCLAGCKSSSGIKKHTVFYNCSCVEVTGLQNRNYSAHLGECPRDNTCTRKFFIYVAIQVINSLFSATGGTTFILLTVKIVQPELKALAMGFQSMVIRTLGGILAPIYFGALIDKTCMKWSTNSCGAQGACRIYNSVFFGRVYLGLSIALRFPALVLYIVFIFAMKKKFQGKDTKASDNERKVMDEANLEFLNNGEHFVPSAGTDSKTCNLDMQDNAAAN

[28] = biological target: T3, ATP-binding cassette sub-family C member 4 (Homo sapiens, UniProt O15439); experiment: Inhibition of MRP4 (unknown origin) in presence of ATP by membrane vesicular transport assay; assay type: cell membranes, Membrane vesicle
T3 sequence (O15439 whole entry): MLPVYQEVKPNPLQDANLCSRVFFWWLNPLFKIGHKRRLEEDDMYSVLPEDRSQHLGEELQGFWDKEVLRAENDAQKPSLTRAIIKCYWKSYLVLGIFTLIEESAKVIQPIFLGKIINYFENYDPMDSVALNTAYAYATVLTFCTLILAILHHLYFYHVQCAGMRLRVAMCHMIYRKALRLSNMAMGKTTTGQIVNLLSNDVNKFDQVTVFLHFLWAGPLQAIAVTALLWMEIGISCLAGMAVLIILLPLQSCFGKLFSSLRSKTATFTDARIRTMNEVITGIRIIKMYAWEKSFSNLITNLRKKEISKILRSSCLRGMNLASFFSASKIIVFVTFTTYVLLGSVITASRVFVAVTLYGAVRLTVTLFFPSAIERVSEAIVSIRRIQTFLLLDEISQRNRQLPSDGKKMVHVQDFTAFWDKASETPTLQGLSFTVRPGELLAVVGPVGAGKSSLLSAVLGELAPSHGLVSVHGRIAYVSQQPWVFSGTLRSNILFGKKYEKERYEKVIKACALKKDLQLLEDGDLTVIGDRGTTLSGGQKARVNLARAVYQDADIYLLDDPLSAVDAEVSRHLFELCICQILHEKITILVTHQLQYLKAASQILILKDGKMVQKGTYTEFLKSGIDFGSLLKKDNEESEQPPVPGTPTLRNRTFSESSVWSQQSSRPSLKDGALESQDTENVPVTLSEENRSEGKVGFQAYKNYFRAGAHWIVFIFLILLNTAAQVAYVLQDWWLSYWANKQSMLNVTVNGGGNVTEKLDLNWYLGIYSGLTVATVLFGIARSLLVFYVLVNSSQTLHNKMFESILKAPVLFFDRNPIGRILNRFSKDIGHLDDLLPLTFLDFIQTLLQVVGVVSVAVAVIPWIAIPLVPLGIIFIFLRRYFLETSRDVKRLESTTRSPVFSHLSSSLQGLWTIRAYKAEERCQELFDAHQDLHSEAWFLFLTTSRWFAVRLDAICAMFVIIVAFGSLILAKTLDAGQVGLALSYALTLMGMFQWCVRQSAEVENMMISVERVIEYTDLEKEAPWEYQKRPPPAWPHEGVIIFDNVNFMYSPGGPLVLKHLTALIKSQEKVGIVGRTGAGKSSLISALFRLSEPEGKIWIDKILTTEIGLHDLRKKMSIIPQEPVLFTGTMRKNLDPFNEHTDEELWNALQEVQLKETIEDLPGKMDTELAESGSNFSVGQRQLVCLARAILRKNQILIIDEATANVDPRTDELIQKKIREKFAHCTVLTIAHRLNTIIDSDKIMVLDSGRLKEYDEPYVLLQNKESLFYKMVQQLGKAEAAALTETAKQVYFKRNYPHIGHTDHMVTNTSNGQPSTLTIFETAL

Mus musculus [29] = experiment: Antifibrotic activity against bleomycin-induced lung fibrosis in male C57Bl/6 mouse model assessed as reduction in ashcroft score at 50 mg/kg, po bid administered from day 7 to 21 relative to control; assay type: functional; parameters: scale not given: the % may be the effect or the level left; conditions: time 15 day

Bile salt export pump, sequence (O95342 whole entry): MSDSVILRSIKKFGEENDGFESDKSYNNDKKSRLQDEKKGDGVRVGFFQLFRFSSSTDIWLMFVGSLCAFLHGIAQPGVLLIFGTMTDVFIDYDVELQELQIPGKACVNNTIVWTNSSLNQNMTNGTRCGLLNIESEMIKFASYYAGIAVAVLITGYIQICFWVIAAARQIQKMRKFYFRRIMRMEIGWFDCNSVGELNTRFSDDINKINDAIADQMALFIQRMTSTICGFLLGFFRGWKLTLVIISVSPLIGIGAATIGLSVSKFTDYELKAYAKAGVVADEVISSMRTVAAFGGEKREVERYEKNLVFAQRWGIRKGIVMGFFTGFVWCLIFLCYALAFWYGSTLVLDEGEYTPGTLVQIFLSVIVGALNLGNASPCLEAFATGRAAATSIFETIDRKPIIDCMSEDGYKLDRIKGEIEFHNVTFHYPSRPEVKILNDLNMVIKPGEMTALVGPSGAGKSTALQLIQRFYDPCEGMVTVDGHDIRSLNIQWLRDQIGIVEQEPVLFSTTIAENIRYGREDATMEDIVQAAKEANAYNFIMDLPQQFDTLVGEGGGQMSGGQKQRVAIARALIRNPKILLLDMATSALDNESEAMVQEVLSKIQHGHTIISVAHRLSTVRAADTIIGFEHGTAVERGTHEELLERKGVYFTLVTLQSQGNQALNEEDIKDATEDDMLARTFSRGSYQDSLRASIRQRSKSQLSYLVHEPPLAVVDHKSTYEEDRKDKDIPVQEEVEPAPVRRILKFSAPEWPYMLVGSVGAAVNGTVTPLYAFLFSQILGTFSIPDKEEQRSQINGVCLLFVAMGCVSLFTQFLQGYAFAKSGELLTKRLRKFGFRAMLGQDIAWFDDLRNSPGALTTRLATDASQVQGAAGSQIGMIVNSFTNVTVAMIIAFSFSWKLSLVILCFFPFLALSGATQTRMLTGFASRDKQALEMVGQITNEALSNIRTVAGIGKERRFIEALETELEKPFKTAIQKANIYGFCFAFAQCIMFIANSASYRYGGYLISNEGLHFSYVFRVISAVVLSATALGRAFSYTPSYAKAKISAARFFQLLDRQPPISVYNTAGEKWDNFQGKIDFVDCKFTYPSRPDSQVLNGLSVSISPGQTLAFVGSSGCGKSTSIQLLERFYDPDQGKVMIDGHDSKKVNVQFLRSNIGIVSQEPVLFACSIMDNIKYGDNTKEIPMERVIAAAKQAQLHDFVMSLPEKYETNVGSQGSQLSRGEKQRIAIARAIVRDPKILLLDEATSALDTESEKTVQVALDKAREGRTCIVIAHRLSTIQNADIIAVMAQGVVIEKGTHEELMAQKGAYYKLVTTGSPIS
ATP-binding cassette sub-family C member 3, sequence (O15438 whole entry): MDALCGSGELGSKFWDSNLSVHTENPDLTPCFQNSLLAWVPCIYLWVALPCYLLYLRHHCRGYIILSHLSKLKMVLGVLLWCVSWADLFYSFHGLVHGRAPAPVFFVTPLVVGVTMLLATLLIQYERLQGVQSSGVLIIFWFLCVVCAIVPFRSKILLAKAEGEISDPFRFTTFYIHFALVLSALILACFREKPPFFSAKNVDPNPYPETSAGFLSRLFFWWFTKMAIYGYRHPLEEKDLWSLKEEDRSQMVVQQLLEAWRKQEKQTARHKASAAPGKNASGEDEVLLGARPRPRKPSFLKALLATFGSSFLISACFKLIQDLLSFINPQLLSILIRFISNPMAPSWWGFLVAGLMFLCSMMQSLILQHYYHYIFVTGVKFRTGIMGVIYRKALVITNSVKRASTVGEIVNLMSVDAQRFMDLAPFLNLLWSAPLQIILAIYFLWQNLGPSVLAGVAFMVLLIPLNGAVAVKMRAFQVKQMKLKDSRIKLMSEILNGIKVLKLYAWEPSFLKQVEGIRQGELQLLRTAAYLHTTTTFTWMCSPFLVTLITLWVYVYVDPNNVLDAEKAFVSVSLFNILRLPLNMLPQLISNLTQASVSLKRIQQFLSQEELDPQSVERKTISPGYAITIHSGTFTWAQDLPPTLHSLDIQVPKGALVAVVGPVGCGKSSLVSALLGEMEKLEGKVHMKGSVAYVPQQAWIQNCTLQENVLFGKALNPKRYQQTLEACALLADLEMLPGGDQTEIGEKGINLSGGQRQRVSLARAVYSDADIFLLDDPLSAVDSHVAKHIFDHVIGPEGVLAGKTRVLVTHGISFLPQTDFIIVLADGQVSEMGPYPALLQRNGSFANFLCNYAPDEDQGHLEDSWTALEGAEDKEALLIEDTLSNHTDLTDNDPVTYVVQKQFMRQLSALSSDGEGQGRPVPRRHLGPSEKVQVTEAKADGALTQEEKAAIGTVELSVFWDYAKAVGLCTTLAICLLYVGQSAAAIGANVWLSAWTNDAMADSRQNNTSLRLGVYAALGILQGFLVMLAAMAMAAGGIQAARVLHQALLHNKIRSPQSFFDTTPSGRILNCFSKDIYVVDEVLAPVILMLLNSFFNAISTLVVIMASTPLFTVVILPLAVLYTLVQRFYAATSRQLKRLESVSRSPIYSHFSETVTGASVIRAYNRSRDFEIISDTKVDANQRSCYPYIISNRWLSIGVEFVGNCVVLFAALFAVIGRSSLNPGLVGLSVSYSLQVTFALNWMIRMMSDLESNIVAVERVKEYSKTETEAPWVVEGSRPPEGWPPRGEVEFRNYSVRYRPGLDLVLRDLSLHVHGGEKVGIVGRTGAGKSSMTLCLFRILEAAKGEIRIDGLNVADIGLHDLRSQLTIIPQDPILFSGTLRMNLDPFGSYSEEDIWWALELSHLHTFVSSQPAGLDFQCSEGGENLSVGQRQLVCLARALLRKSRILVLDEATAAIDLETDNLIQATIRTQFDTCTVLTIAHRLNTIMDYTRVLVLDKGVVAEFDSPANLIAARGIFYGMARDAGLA
Lysophosphatidic acid receptor 1 (Homo sapiens, UniProt Q92633), sequence (Q92633 whole entry): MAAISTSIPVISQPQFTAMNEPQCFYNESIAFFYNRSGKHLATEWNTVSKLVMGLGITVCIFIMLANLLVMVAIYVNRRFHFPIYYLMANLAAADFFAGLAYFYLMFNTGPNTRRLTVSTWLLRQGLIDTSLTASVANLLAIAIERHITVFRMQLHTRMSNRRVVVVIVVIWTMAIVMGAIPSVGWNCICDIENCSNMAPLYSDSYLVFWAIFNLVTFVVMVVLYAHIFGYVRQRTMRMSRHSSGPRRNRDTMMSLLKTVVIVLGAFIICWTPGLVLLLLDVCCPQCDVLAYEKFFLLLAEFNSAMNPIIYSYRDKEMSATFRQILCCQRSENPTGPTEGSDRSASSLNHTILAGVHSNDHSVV
ATP-binding cassette sub-family C member 2, sequence (Q92887 whole entry): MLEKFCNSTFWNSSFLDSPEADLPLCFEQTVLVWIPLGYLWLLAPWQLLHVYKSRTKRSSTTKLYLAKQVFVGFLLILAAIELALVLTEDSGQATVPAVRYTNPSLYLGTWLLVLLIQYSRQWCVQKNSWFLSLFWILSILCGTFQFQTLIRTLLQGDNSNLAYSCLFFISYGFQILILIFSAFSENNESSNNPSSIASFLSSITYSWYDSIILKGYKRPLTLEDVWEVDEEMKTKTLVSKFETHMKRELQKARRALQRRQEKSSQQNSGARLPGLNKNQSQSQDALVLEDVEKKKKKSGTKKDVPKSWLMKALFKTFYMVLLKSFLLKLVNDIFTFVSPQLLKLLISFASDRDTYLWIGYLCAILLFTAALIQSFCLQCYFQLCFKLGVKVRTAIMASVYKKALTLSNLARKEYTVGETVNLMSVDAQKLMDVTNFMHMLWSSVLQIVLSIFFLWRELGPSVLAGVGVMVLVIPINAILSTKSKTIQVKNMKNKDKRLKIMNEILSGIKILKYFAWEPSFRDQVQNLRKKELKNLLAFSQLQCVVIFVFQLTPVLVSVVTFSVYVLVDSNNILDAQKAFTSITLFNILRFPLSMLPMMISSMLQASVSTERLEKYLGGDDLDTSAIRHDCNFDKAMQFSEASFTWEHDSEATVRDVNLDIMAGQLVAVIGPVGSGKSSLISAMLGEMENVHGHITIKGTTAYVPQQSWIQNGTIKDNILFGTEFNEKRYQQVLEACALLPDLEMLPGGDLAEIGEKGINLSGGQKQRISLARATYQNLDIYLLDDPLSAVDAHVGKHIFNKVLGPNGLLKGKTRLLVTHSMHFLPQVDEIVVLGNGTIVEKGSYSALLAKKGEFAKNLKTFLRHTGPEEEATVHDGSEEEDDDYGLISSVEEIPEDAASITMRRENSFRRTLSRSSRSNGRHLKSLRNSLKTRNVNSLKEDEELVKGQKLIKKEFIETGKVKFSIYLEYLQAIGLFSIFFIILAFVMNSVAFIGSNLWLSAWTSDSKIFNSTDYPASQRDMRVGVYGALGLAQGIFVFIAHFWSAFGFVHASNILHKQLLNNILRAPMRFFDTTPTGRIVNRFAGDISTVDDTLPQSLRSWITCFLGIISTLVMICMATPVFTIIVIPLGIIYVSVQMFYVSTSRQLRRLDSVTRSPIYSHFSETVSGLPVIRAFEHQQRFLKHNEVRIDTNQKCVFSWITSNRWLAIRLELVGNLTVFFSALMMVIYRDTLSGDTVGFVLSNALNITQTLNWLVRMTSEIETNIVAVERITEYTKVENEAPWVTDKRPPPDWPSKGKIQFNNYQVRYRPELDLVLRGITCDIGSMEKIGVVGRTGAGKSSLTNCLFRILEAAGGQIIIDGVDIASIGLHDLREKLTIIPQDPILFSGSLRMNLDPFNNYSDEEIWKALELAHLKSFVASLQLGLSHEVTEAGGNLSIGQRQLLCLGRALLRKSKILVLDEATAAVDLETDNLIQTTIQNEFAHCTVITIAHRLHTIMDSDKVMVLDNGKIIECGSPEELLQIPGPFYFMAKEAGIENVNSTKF
BSEP, sequence (O95342 whole entry): as the sequence (O95342 whole entry) above
Lysophosphatidic acid receptor 1 (Mus musculus, UniProt P61793), sequence (P61793 whole entry): as the sequence (Q92633 whole entry) above, with I4A, I8S, P22Q, H40Y, I61V, E193D, N194H, I269V, S331N, T335N counted along it

fAUClast [1]: 430 h/ng/mL
Tlast [2]: 8 h
AUClast [3]: 6720 h/ng/mL
Cmax [4]: 3930 ng/mL
microsomal CLint at 0.5 µM [5]: 2.7 µL/min/mg
AUClast [6]: 4040 h/ng/mL
microsomal CLint at 0.5 µM [7]: 0.4 µL/min/mg
fAUClast [8]: 257 h/ng/mL
clearance [9]: 17.1 mL/min/kg
IC50 [10]: 15.8 nM
Vd [11]: 2.1 L/kg
bioavailability [13]: 22%
Cmax [14]: 2620 ng/mL
half-life [15]: 4.19 h
fCmax [17]: 167 ng/mL
fCmax [18]: 251 ng/mL
chromatographic logD [19]: 1.18
Tlast [20]: 24 h
solubility [21]: 318 µM (≈ 172 µg/mL)
IC50 [22]: 31.6 nM
Compound: Cc1nc(-c2nnn(C)c2NC(=O)O[C@H](C)c2ccccc2Cl)ccc1NC(=O)[C@H]1CCCC[C@@H]1C(=O)O
IC50 (Bile salt export pump): > 100000 nM
inhibition at 50 µM (BSEP): 16%
ED50 (Mus musculus [12]): 0.1 mg/kg
IC50 [16]: 37.2 nM

IC50 [23]: 158 nM
IC50 [24]: 50100 nM
IC50 [25]: 7940 nM
IC50 [26]: 20000 nM
IC50 [27]: 631 nM
IC50 [28]: 6310 nM
Compound: Cc1noc(-c2ccc(-c3ccc(C4(C(=O)O)CC4)cc3)cc2)c1NC(=O)O[C@H](C)c1ccccc1 [BMS-986020]
IC50 (Bile salt export pump): 2000 nM

Compound: COC(=O)c1ccc2c(c1)NC(=O)/C2=C(\Nc1ccc(N(C)C(=O)CN2CCN(C)CC2)cc1)c1ccccc1 [NINTEDANIB]
Activity (Mus musculus [29]): 23%
